In article doi:10.1101/2023.03.24.534094v2 (biorxiv, 2023):
Like-named read-outs stand apart in the source and are kept apart here. Each block holds one molecule with its values, some of them ahead of it.

Key:
Experiment in all cases: biochemical
HIPK2 = HIPK2 (Homo sapiens, UniProt Q9H2X6)
JNK1 = JNK1 (Homo sapiens, UniProt P45983)
CDK2 = CDK2 (Homo sapiens, UniProt P24941)
BRAF = BRAF (Homo sapiens, UniProt P15056)
BRD4 = BRD4 (Homo sapiens, UniProt O60885)
LOK = LOK (Homo sapiens, UniProt O94804)
Chain of LOK (O94804 whole entry): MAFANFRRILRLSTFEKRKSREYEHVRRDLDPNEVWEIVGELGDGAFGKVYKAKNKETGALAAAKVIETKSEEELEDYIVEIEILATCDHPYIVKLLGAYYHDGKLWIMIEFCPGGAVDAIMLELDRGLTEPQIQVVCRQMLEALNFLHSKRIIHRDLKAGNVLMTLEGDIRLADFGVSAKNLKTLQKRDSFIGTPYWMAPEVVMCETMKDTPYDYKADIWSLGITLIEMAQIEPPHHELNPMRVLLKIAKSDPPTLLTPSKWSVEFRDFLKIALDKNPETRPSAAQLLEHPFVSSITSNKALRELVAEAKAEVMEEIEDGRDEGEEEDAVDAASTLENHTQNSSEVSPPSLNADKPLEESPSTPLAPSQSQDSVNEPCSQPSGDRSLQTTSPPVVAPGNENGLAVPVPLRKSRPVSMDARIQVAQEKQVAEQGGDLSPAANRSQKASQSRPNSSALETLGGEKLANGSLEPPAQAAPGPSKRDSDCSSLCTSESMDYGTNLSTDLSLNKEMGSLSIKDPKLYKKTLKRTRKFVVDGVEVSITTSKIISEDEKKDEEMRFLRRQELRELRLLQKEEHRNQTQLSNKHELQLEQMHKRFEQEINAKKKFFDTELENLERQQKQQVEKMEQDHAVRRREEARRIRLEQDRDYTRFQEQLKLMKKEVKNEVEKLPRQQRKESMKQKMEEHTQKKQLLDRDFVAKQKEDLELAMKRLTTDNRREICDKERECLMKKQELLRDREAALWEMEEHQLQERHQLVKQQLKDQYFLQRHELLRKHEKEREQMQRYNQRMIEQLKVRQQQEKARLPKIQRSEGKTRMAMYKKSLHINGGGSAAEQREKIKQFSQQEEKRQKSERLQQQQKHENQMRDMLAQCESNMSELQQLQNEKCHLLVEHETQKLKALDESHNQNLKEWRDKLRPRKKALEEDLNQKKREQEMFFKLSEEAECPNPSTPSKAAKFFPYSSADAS

CaMK4 = target: T1, CaMK4 (Homo sapiens, UniProt Q16566)
T1 sequence (Q16566 1-473): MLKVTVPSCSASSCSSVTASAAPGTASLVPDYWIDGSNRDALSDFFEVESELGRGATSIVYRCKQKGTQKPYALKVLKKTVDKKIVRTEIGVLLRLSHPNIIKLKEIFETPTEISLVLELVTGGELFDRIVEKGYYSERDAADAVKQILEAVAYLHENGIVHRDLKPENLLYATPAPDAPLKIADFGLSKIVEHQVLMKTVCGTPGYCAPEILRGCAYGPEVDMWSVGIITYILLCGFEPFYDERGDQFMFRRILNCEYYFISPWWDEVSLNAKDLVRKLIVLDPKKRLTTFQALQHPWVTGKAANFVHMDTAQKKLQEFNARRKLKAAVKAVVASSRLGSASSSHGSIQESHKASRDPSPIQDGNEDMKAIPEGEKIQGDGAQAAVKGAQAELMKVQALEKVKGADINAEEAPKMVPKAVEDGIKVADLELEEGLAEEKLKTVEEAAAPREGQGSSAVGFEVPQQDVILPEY

DRAK1 = target: T2, DRAK1 (Homo sapiens, UniProt Q9UEE5)
T2 sequence (Q9UEE5 1-414): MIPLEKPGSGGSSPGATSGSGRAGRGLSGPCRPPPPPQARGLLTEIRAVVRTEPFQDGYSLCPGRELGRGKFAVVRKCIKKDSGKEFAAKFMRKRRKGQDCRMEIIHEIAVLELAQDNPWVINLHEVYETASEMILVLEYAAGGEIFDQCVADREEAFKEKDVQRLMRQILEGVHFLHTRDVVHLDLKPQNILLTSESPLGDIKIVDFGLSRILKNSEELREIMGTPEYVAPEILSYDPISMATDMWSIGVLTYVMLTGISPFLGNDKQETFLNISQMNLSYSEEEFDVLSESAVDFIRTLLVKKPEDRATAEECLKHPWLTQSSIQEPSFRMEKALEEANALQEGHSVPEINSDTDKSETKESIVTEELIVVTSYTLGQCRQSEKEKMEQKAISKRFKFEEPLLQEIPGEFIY

MER = target: T3, MER (Homo sapiens, UniProt Q12866)
T3 sequence (Q12866 1-999): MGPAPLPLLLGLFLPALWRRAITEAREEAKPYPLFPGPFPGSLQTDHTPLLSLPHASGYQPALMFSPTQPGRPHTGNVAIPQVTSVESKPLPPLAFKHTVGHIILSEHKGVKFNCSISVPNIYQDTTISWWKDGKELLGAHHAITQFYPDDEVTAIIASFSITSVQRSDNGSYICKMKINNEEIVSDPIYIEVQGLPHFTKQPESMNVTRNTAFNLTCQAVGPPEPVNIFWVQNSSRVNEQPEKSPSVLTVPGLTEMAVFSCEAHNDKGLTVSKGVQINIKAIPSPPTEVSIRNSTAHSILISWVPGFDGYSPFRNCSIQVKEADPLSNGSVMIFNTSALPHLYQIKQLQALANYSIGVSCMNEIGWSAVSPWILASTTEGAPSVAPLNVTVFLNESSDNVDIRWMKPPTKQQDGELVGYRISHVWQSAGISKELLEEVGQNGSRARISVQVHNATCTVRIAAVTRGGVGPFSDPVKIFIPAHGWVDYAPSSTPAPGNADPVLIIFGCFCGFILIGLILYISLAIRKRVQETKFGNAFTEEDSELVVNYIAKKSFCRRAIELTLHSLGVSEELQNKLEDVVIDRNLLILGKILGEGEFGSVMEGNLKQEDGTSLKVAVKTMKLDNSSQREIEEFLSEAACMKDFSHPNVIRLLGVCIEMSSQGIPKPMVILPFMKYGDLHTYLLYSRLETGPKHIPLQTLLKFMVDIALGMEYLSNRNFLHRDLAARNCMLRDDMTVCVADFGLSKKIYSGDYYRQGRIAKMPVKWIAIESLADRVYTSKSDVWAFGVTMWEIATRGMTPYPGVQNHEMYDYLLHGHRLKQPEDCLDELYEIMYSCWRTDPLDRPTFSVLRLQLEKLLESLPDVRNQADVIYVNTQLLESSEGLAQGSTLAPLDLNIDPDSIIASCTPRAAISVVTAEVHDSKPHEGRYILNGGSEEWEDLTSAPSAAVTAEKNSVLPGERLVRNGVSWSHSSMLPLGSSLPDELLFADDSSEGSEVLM

Chain of BRAF (P15056 whole entry): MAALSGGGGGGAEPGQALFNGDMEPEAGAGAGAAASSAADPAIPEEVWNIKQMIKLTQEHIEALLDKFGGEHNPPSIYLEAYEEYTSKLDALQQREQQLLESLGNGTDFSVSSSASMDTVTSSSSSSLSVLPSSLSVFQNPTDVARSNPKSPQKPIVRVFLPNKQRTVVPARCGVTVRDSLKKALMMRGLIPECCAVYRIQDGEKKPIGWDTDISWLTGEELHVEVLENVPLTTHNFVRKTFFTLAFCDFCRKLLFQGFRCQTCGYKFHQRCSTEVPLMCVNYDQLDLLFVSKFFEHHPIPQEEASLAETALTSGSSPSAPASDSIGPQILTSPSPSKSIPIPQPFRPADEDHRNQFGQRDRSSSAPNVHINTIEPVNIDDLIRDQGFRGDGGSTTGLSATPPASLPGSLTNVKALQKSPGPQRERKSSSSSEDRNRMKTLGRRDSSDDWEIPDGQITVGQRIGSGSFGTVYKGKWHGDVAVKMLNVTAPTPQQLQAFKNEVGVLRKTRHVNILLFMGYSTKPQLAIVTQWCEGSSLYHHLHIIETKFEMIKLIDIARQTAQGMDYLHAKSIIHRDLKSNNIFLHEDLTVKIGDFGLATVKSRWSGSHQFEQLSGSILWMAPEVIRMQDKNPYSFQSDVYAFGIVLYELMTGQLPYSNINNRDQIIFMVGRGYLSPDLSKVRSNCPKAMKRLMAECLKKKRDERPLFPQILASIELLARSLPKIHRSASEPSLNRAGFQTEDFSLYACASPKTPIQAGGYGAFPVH
Chain of HIPK2 (Q9H2X6 whole entry): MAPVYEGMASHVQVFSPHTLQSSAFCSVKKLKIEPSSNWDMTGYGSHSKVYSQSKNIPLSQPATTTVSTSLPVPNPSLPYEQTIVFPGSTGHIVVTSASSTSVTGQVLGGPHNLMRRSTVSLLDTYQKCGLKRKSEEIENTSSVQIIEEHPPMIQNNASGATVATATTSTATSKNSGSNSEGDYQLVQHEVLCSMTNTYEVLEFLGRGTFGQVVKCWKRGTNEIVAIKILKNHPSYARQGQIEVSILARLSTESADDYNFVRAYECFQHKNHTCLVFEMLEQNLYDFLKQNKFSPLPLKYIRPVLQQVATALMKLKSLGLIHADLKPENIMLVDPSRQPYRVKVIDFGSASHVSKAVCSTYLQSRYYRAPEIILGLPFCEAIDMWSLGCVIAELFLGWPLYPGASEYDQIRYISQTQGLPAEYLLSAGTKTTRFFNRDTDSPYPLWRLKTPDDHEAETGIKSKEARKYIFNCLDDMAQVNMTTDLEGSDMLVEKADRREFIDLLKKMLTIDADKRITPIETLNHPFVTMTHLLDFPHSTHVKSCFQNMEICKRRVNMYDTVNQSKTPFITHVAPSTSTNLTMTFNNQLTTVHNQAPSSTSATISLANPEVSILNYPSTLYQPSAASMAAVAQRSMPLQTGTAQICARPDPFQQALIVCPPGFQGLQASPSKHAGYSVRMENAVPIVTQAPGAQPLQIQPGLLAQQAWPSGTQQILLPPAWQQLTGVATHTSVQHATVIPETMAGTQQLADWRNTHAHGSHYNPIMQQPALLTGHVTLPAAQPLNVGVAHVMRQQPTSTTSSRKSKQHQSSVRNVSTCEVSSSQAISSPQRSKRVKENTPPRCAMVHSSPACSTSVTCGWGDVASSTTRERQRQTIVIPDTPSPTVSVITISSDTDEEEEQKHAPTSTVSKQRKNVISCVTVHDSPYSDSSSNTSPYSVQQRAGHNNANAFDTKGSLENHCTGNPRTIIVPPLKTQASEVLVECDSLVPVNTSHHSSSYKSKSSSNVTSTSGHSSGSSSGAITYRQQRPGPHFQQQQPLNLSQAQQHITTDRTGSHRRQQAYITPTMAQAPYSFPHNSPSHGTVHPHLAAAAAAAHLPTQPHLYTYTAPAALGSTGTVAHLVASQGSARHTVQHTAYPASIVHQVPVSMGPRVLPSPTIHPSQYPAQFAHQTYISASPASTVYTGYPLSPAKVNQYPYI
Chain of JNK1 (P45983 whole entry): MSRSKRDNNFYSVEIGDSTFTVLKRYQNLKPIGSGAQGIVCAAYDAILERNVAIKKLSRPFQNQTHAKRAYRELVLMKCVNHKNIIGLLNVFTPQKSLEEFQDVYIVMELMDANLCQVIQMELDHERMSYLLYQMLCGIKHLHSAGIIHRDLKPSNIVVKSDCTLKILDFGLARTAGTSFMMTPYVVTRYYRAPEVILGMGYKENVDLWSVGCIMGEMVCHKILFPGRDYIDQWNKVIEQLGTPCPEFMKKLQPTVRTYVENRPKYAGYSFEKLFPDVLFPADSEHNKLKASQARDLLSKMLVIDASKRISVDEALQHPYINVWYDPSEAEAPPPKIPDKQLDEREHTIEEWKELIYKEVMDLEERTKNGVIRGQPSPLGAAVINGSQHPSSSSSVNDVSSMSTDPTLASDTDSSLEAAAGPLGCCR

- ΔTm at 10 µM (HIPK2; read-out: dTm 11): 0.8 °C
- ΔTm at 10 µM (JNK1; read-out: dTm 11): 0.9 °C
- ΔTm at 10 µM (CDK2; read-out: dTm 11): 0.7 °C
- ΔTm at 10 µM (BRAF; read-out: dTm 11): 11.6 °C
- ΔTm at 10 µM (BRD4; read-out: dTm 11): 1 °C
- ΔTm at 10 µM (LOK; read-out: dTm 11): 3.6 °C
- ΔTm at 10 µM (CaMK4; read-out: dTm 11): 0.1 °C
- ΔTm at 10 µM (DRAK1; read-out: dTm 11): -0.8 °C
- ΔTm at 10 µM (MER; read-out: dTm 11): 0.6 °C
Compound: CNc1ncc2cc(-c3cc(Br)ccc3Br)c(=O)n(CCCCN)c2n1 [compound 11, 8-(4-Aminobutyl)-6-(2,5-dibromophenyl)-2-(methylamino)pyrido[2,3-d]pyrimidin-7(8H)-one]

- ΔTm at 10 µM (HIPK2; read-out: dTm 12): 0.4 °C
- ΔTm at 10 µM (JNK1; read-out: dTm 12): 0.7 °C
- ΔTm at 10 µM (CDK2; read-out: dTm 12): 1.1 °C
- ΔTm at 10 µM (BRAF; read-out: dTm 12): 2.3 °C
- ΔTm at 10 µM (BRD4; read-out: dTm 12): -2 °C
- ΔTm at 10 µM (LOK; read-out: dTm 12): -0.4 °C
- ΔTm at 10 µM (CaMK4; read-out: dTm 12): 2.9 °C
- ΔTm at 10 µM (DRAK1; read-out: dTm 12): 0 °C
- ΔTm at 10 µM (MER; read-out: dTm 12): 1.1 °C
Compound: CNc1ncc2cc(-c3cc(F)c(-c4cccc(C)n4)cc3F)c(=O)n(CCCCN)c2n1 [compound 12, 8-(4-Aminobutyl)-6-(2,5-difluoro-4-(6-methylpyridin-2-yl)phenyl)-2-(methylamino)pyrido[2,3-d]pyrimidin-7(8H)-one]

The next lines start with the molecule.

Compound: CNc1ncc2cc(-c3cc(Cl)ccc3Cl)c(=O)n(CCCCN)c2n1 [compound 8, 8-(4-Aminobutyl)-6-(2,5-dichlorophenyl)-2-(methylamino)pyrido[2,3-d]pyrimidin-7(8H)-one]
- ΔTm at 10 µM (HIPK2; read-out: dTm 8): 0.7 °C
- ΔTm at 10 µM (JNK1; read-out: dTm 8): 1.4 °C
- ΔTm at 10 µM (CDK2; read-out: dTm 8): 0.6 °C
- ΔTm at 10 µM (BRAF; read-out: dTm 8): 10.8 °C
- ΔTm at 10 µM (BRD4; read-out: dTm 8): 1.3 °C
- ΔTm at 10 µM (LOK; read-out: dTm 8): 2.5 °C
- ΔTm at 10 µM (CaMK4; read-out: dTm 8): 0.1 °C
- ΔTm at 10 µM (DRAK1; read-out: dTm 8): 1.1 °C
- ΔTm at 10 µM (MER; read-out: dTm 8): 0.5 °C

Compound: CNc1ncc2cc(-c3cc(C(F)(F)F)ccc3Cl)c(=O)n(CCCCN)c2n1 [compound 9, 8-(4-Aminobutyl)-6-(2-chloro-5-(trifluoromethyl)phenyl)-2-(methylamino)pyrido[2,3-d]pyrimidin-7(8H)-one]
- ΔTm at 10 µM (HIPK2; read-out: dTm 9): 0.7 °C
- ΔTm at 10 µM (JNK1; read-out: dTm 9): 0.6 °C
- ΔTm at 10 µM (CDK2; read-out: dTm 9): 0.3 °C
- ΔTm at 10 µM (BRAF; read-out: dTm 9): 10.4 °C
- ΔTm at 10 µM (BRD4; read-out: dTm 9): 0.7 °C
- ΔTm at 10 µM (LOK; read-out: dTm 9): 1.6 °C
- ΔTm at 10 µM (CaMK4; read-out: dTm 9): 0.1 °C
- ΔTm at 10 µM (DRAK1; read-out: dTm 9): -1.1 °C
- ΔTm at 10 µM (MER; read-out: dTm 9): 0.2 °C

Compound: CNc1ncc2cc(-c3cc(Cl)ccc3Br)c(=O)n(CCCCN)c2n1 [compound 10, 8-(4-Aminobutyl)-6-(2-bromo-5-chlorophenyl)-2-(methylamino)pyrido[2,3-d]pyrimidin-7(8H)-one]
- ΔTm at 10 µM (HIPK2; read-out: dTm 10): 0.8 °C
- ΔTm at 10 µM (JNK1; read-out: dTm 10): 0.8 °C
- ΔTm at 10 µM (CDK2; read-out: dTm 10): 0.6 °C
- ΔTm at 10 µM (BRAF; read-out: dTm 10): 11.4 °C
- ΔTm at 10 µM (BRD4; read-out: dTm 10): 1.2 °C
- ΔTm at 10 µM (LOK; read-out: dTm 10): 3.5 °C
- ΔTm at 10 µM (CaMK4; read-out: dTm 10): 0.1 °C
- ΔTm at 10 µM (DRAK1; read-out: dTm 10): -0.8 °C
- ΔTm at 10 µM (MER; read-out: dTm 10): 0.7 °C
